Assay results: PubChem BioAssay (NCI)
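Tested at 5 concentrations; 48 h exposure; 96-well plates; endpoints linearly interpolated, else capped at highest concentration. At the GI50, growth is halved. TGI: concentration producing complete growth inhibition.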

Assays:
Assay in all cases: NCI anticancer screen, dose series, 48 h; in the data active means GI50 below about 0.43 µM; inactive means the rest
SF-295 CNS = system: SF-295 CNS
CAKI-1 renal = system: CAKI-1 renal
ACHN renal = system: ACHN renal
OVCAR-8 ovarian = system: OVCAR-8 ovarian
UO-31 renal = system: UO-31 renal
HT29 colon = system: HT29 colon
T-47D breast = system: T-47D breast
NCI/ADR-RES ovarian = system: NCI/ADR-RES ovarian
NCI-H522 lung = system: NCI-H522 lung
SK-MEL-2 melanoma = system: SK-MEL-2 melanoma
SNB-19 CNS = system: SNB-19 CNS
SK-MEL-28 melanoma = system: SK-MEL-28 melanoma
MALME-3M melanoma = system: MALME-3M melanoma
TK-10 renal = system: TK-10 renal
OVCAR-3 ovarian = system: OVCAR-3 ovarian
HCT-15 colon = system: HCT-15 colon
SK-MEL-5 melanoma = system: SK-MEL-5 melanoma
CCRF-CEM leukemia = system: CCRF-CEM leukemia
SW-620 colon = system: SW-620 colon
MDA-MB-435 = system: MDA-MB-435
RPMI-8226 leukemia = system: RPMI-8226 leukemia
PC-3 prostate = system: PC-3 prostate
BT-549 breast = system: BT-549 breast
SK-OV-3 ovarian = system: SK-OV-3 ovarian
HL-60(TB) leukemia = system: HL-60(TB) leukemia
IGROV1 ovarian = system: IGROV1 ovarian
MDA-MB-231 breast = system: MDA-MB-231 breast
U251 CNS = system: U251 CNS
OVCAR-5 ovarian = system: OVCAR-5 ovarian
HS 578T breast = system: HS 578T breast
SN12C renal = system: SN12C renal
786-0 renal = system: 786-0 renal
HCC-2998 colon = system: HCC-2998 colon
SF-539 CNS = system: SF-539 CNS
NCI-H226 lung = system: NCI-H226 lung
MOLT-4 leukemia = system: MOLT-4 leukemia
COLO 205 colon = system: COLO 205 colon
HCT-116 colon = system: HCT-116 colon
M14 melanoma = system: M14 melanoma
K-562 leukemia = system: K-562 leukemia
HOP-62 NSCLC = system: HOP-62 NSCLC
NCI-H460 lung = system: NCI-H460 lung
LOX IMVI melanoma = system: LOX IMVI melanoma
SR leukemia = system: SR leukemia
DU-145 prostate = system: DU-145 prostate
RXF 393 renal = system: RXF 393 renal
SF-268 CNS = system: SF-268 CNS
KM12 colon = system: KM12 colon
EKVX NSCLC = system: EKVX NSCLC
UACC-62 melanoma = system: UACC-62 melanoma
UACC-257 melanoma = system: UACC-257 melanoma
A549 NSCLC = system: A549 NSCLC
HOP-92 NSCLC = system: HOP-92 NSCLC
OVCAR-4 ovarian = system: OVCAR-4 ovarian
MCF7 breast = system: MCF7 breast
SNB-75 CNS = system: SNB-75 CNS
A498 renal = system: A498 renal

CCCC(=O)NC(c1cccnc1)c1cc(C(C)(C)C)c2cccnc2c1O (centres undefined)
19.6 µM: TGI (UACC-62 melanoma)
48.4 µM: TGI (SK-MEL-5 melanoma)
83.1 µM: TGI (NCI-H226 lung)
16.2 µM: TGI (HOP-92 NSCLC)
> 100 µM: TGI (SF-295 CNS) | TGI (CAKI-1 renal) | TGI (ACHN renal) | TGI (OVCAR-8 ovarian) | TGI (UO-31 renal) | TGI (HT29 colon) | TGI (T-47D breast) | TGI (NCI/ADR-RES ovarian) | TGI (SK-MEL-2 melanoma) | TGI (SNB-19 CNS) | TGI (SK-MEL-28 melanoma) | TGI (MALME-3M melanoma) | TGI (TK-10 renal) | TGI (OVCAR-3 ovarian) | TGI (HCT-15 colon) | TGI (CCRF-CEM leukemia) | TGI (SW-620 colon) | TGI (MDA-MB-435) | TGI (RPMI-8226 leukemia) | TGI (PC-3 prostate) | TGI (BT-549 breast) | TGI (IGROV1 ovarian) | TGI (MDA-MB-231 breast) | TGI (U251 CNS) | TGI (OVCAR-5 ovarian) | TGI (HS 578T breast) | TGI (SN12C renal) | TGI (786-0 renal) | TGI (HCC-2998 colon) | TGI (SF-539 CNS) | TGI (MOLT-4 leukemia) | TGI (COLO 205 colon) | TGI (HCT-116 colon) | TGI (K-562 leukemia) | TGI (HOP-62 NSCLC) | TGI (NCI-H460 lung) | TGI (LOX IMVI melanoma) | TGI (SR leukemia) | TGI (DU-145 prostate) | TGI (RXF 393 renal) | TGI (SF-268 CNS) | TGI (KM12 colon) | TGI (EKVX NSCLC) | TGI (A549 NSCLC) | TGI (OVCAR-4 ovarian) | TGI (MCF7 breast) | TGI (A498 renal)
21.1 µM: TGI (HL-60(TB) leukemia)
44 µM: TGI (M14 melanoma)
16.4 µM: TGI (SNB-75 CNS)
20.4 µM: TGI (NCI-H522 lung)
inactive: GI50 (SF-295 CNS) 4.24 µM | GI50 (CAKI-1 renal) 3.19 µM | GI50 (ACHN renal) 3.62 µM | GI50 (OVCAR-8 ovarian) 4 µM | GI50 (UO-31 renal) 2.22 µM | GI50 (HT29 colon) 4.32 µM | GI50 (T-47D breast) 3.59 µM | GI50 (NCI/ADR-RES ovarian) 2.54 µM | GI50 (NCI-H522 lung) 2.78 µM | GI50 (SK-MEL-2 melanoma) 6.7 µM | GI50 (SNB-19 CNS) 8.15 µM | GI50 (SK-MEL-28 melanoma) 4.86 µM | GI50 (MALME-3M melanoma) 10.6 µM | GI50 (TK-10 renal) 5.48 µM | GI50 (OVCAR-3 ovarian) 3.98 µM | GI50 (HCT-15 colon) 3.24 µM | GI50 (SK-MEL-5 melanoma) 13.7 µM | GI50 (CCRF-CEM leukemia) 2.63 µM | GI50 (SW-620 colon) 6.07 µM | GI50 (MDA-MB-435) 6.94 µM | GI50 (RPMI-8226 leukemia) 4.35 µM | GI50 (PC-3 prostate) 4.39 µM | GI50 (BT-549 breast) 5.06 µM | GI50 (SK-OV-3 ovarian) 3.46 µM | GI50 (HL-60(TB) leukemia) 2.86 µM | GI50 (IGROV1 ovarian) 3.7 µM | GI50 (MDA-MB-231 breast) 6.3 µM | GI50 (U251 CNS) 4.12 µM | GI50 (OVCAR-5 ovarian) 6.96 µM | GI50 (HS 578T breast) 7.31 µM | GI50 (SN12C renal) 7.13 µM | GI50 (786-0 renal) 4.61 µM | GI50 (HCC-2998 colon) 7.41 µM | GI50 (SF-539 CNS) 4.37 µM | GI50 (NCI-H226 lung) 3.75 µM | GI50 (MOLT-4 leukemia) 3.53 µM | GI50 (COLO 205 colon) 3.25 µM | GI50 (HCT-116 colon) 3.74 µM | GI50 (M14 melanoma) 3.91 µM | GI50 (K-562 leukemia) 3.45 µM | GI50 (HOP-62 NSCLC) 4.15 µM | GI50 (NCI-H460 lung) 3.89 µM | GI50 (LOX IMVI melanoma) 3.78 µM | GI50 (SR leukemia) 3.69 µM | GI50 (DU-145 prostate) 11.3 µM | GI50 (RXF 393 renal) 4.31 µM | GI50 (SF-268 CNS) 5.11 µM | GI50 (KM12 colon) 6.8 µM | GI50 (EKVX NSCLC) 5.19 µM | GI50 (UACC-62 melanoma) 3.24 µM | GI50 (UACC-257 melanoma) 3.82 µM | GI50 (A549 NSCLC) 5.68 µM | GI50 (HOP-92 NSCLC) 1.53 µM | GI50 (OVCAR-4 ovarian) 3.82 µM | GI50 (MCF7 breast) 2.97 µM | GI50 (SNB-75 CNS) 2.51 µM | GI50 (A498 renal) > 100 µM
66.4 µM: TGI (UACC-257 melanoma)
71.7 µM: TGI (SK-OV-3 ovarian)
